Test results taken from patent US20050124607A1, “5-Substituted quinazolinone compounds useful as alpha 1A/B adrenergic receptor antagonists” (priority 2003, published 2005).
Counter-ions that a name gives are not always drawn.

| melting point | SMILES |
| --- | --- |
| 231.1 to 232.2 °C | COc1cc2[nH]c(N3CCN(c4cccc(C)n4)CC3)nc(=O)c2c(OC)c1OC [Example 24, 5,6,7-Trimethoxy-2-[4-(6-meth-yl-pyridin-2-yl)-pipe-razin-1-yl]-1H-quina-zolin-4-one] |
| 212 to 215 °C | COc1cc2[nH]c(N3CCC(Cc4ccccc4)CC3)nc(=O)c2c(OC)c1OC [Example 63, 2-(4-Benzyl-piperidin-1-yl)-5,6,7-tri-methoxy-1H-quina-zolin-4-one] |
| 190 to 192 °C | COc1cc2[nH]c(N3CCc4c(ncnc4N4CCOCC4)C3)nc(=O)c2c(OC)c1OC (as salt: HCl) [Example 135, 5,6,7-Trimethoxy-2-(4-morpho-lin-4-yl-5,8-di-hydro-6H-pyrido[3,4-d]py-rimidin-7-yl)-1H-quina-zolin-4-one] |
| 208.8 to 212 °C | CNCC(=O)N(C)Cc1cccc2c1CCN(c1nc(=O)c3c(C)c(OC)c(OC)cc3[nH]1)C2 [Example 8, N-[2-(6,7-Dimethoxy-5-meth-yl-4-oxo-1,4-di-hydro-quina-zolin-2-yl)-1,2,3,4-tetrahydro-iso-quinolin-5-ylmethyl]-N-meth-yl-2-methyl-amino-acetamide] |
| 289 to 291 °C | COc1cc2[nH]c(N3Cc4ccc(Cl)cc4C3)nc(=O)c2c(OC)c1OC.Cl |
| 188.6 to 191 °C | COc1cc2[nH]c(N3CCCC3c3cccc(NCCNC(C)=O)c3)nc(=O)c2c(OC)c1OC (centres unmarked) [Example 139, N-(2-{3-[1-(5,6,7-Tri-methoxy-4-oxo-1,4-di-hydro-quinazolin-2-yl)-pyr-rolidin-2-yl]-phenyl-amino}-ethyl)-acetamide] |
| 260.8 to 269 °C | COc1cc2c(cc1OC)CN(c1nc(=O)c3c(F)c(OC)c(OC)cc3[nH]1)CC2 [Example 133, 2-(6,7-Dimethoxy-3,4-di-hydro-1H-isoquino-lin-2-yl)-5-fluoro-6,7-di-methoxy-1H-quina-zolin-4-one] |
| 243 to 244 °C | COc1cc2c(cc1OC)CN(c1nc(=O)c3c(C(C)C)c(OC)c(OC)cc3[nH]1)CC2 (as salt: HCl) [Example 119, 2-(6,7-Dimethoxy-3,4-di-hydro-1H-isoquinolin-2-yl)-5-iso-propyl-6,7-di-methoxy-1H-quina-zolin-4-one] |
| 263 to 264 °C | COc1cc2[nH]c(N3CCN(c4nccn4C)CC3)nc(=O)c2c(C)c1OC |
| 257.9 to 260 °C | COc1cc2[nH]c(N3CCN(C4=NCCN4c4cccc(F)c4)CC3)nc(=O)c2c(C)c1OC |
| 246 to 250 °C | COc1cc2[nH]c(N3CCc4c(cccc4C4=NCCN4C)C3)nc(=O)c2c(C)c1OC |
| 115.8 to 120.1 °C | COc1cc2[nH]c(N3CCc4ccc(/N=C(\C)N(C)C)cc4C3)nc(=O)c2c(OC)c1OC [Example 103, N,N-Dimethyl-N′-[2-(5,6,7-tri-methoxy-4-oxo-1,4-di-hydro-quinazolin-2-yl)-1,2,3,4-tetra-hydro-isoquinolin-7-yl]-acetamidine] |
| 198 to 201 °C | COc1cc2nc(N3CCN(C(=O)CCC(C)C)CC3)[nH]c(=O)c2c(OC)c1OC (as salt: salt) [Example A-1, 5,6,7-Trimethoxy-2-[4-(4-methyl-pentanoyl)-piperazin-1-yl]-1H-quinazolin-4-one] |
| 65 to 79.1 °C | COC[C@H]1CCCN1CCC1CCN(c2nc(=O)c3c(OC)c(OC)c(OC)cc3[nH]2)CC1 [Example 70, 5,6,7-Trimeth-oxy-2-{4-[2-((R)-2-meth-oxymethyl-pyr-rolidin-1-yl)-ethyl]-pipe-ridin-1-yl}-1H-quina-zolin-4-one] |
| 152.2 to 154.4 °C | COc1cc2[nH]c(N3CCC(c4cccc(/N=C(\C)N(C)C)c4)C3)nc(=O)c2c(C)c1OC (centres unmarked) [Example 142, N′-{3-[1-(6,7-Di-methoxy-5-methyl-4-oxo-1,4-di-hydro-quina-zolin-2-yl)-pyr-rolidin-3-yl]-phenyl}-N,N-di-methyl-acetamidine] |
| > 300 °C | COc1cc2[nH]c(N3CCc4c(ncnc4N4CCOCC4)C3)nc(=O)c2c(C)c1OC [Example 136, 6,7-Dimethoxy-5-meth-yl-2-(4-morpholin-4-yl-5,8-di-hydro-6H-py-rido[3,4-d]pyrimidin-7-yl)-1H-quina-zolin-4-one] |

| melting point | SMILES |
| --- | --- |
| 176 to 177.1 °C | COc1cc2[nH]c(N3CCc4ccc(/N=C(\C)N(C)C)cc4C3)nc(=O)c2c(C)c1OC [Example 132, N′-[2-(6,7-Dimethoxy-5-meth-yl-4-oxo-1,4-di-hydro-quinazolin-2-yl)-1,2,3,4-tetra-hydro-isoquinolin-7-yl]-N,N-di-methyl-acetamidine] |
| 220 to 225 °C | COc1cc2c(cc1OC)CN(c1nc(=O)c3c(-c4ccc(F)cc4)c(OC)c(OC)cc3[nH]1)CC2 [Example 120, 2-(6,7-Dimethoxy-3,4-di-hydro-1H-isoquino-lin-2-yl)-5-(4-fluoro-phe-nyl)-6,7-dimethoxy-1H-quina-zolin-4-one] |
| 270.9 to 273.5 °C | COc1cc2[nH]c(N3CCc4c(cccc4/N=C(\C)N(C)C)C3)nc(=O)c2c(C)c1OC [Example 98, N′-[2-(6,7-Dimethoxy-5-meth-yl-4-oxo-1,4-di-hydro-quinazolin-2-yl)-1,2,3,4-tetra-hydro-iso-quinolin-5-yl]-N,N-di-methyl-acetamidine] |
| 238.7 to 241.9 °C | COc1cc2c(cc1OC)CN(c1nc(=O)c3c(Oc4ccccc4)c(OC)c(OC)cc3[nH]1)CC2 [Example 113, 2-(6,7-Dimethoxy-3,4-di-hydro-1H-isoquinolin-2-yl)-6,7-di-methoxy-5-phe-noxy-1H-quinazolin-4-one] |
| 223.5 to 226.6 °C | COc1cc2[nH]c(N3CCc4c(cccc4/N=C(\C)N(C)C)C3)nc(=O)c2c(OC)c1OC [Example 122, N,N-Dimethyl-N′-[2-(5,6,7-tri-methoxy-4-oxo-1,4-di-hydro-quinazolin-2-yl)-1,2,3,4-tetra-hydro-iso-quinolin-5-yl]-acetamidine] |
| 189.4 to 204.6 °C | CCN(C)Cc1ccc2c(c1)CN(c1nc(=O)c3c(C)c(OC)c(OC)cc3[nH]1)CC2 [Example 2, 2-{7-[(Ethyl-methyl-ami-no)-methyl]-3,4-di-hydro-1H-isoquinolin-2-yl}-6,7-di-methoxy-5-meth-yl-1H-quinazolin-4-one] |
| 178.1 to 180.9 °C | CNCc1ccc2c(c1)CN(c1nc(=O)c3c(OC)c(OC)c(OC)cc3[nH]1)CC2 [Example 4, 5,6,7-Trimethoxy-2-(7-meth-ylaminomethyl-3,4-di-hydro-1H-isoquino-lin-2-yl)-1H-quina-zolin-4-one] |
| 254.3 to 257.1 °C | CCCC(=N)Nc1cccc2c1CCN(c1nc(=O)c3c(C)c(OC)c(OC)cc3[nH]1)C2 [Example 125, N-[2-(6,7-Dimethoxy-5-meth-yl-4-oxo-1,4-di-hydro-quinazolin-2-yl)-1,2,3,4-tetra-hydro-isoquinolin-5-yl]-butyramidine] |
| 83.1 to 110.9 °C | COC[C@@H]1CCCN1CCC1CCN(c2nc(=O)c3c(C)c(OC)c(OC)cc3[nH]2)CC1 [Example 51, 6,7-Dimethoxy-2-{4-[2-((S)-2-meth-oxymethyl-pyr-rolidin-1-yl)-ethyl]-pipe-ridin-1-yl}-5-meth-yl-1H-quinazolin-4-one] |
| 255 to 259 °C | COc1cc2c(cc1OC)CN(c1nc(=O)c3c(O)c(OC)c(OC)cc3[nH]1)CC2 (as salt: HCl) [Example 110, 2-(6,7-Dimethoxy-3,4-di-hydro-1H-isoquinolin-2-yl)-5-hy-droxy-6,7-di-methoxy-1H-quinazolin-4-one] |
| 198 to 201 °C | COc1cc2[nH]c(N3CCN(C(=O)CCC(C)C)CC3)nc(=O)c2c(OC)c1OC.Cl |
| 236.6 to 237.7 °C | COc1cc2[nH]c(N3CCCN(C(=O)N4CCOCC4)CC3)nc(=O)c2c(C)c1OC (as salt: HCl) [Example 137, 6,7-Dimethoxy-5-meth-yl-2-[4-(morpho-line-4-carbo-nyl)-[1,4]diazepan-1-yl]-1H-quina-zolin-4-one] |
| 196 to 200 °C | COc1cc2[nH]c(N3CCc4c(cccc4/N=C4\CCCN4C)C3)nc(=O)c2c(C(C)C)c1OC [Example 9, 5-Isopropyl-6,7-di-methoxy-2-{5-[1-meth-yl-pyrolidin-(2E)-ylidene-amino]-3,4-di-hydro-1H-iso-quinolin-2-yl}-1H-quina-zolin-4-one] |
| 130.9 to 133.3 °C | COc1cc2[nH]c(N3CCC(CCn4ccnc4N)CC3)nc(=O)c2c(C)c1OC |
| 186 to 188.2 °C | COc1cc2[nH]c(N3CCC(OCc4ccccc4S(=O)(=O)N(C)C)CC3)nc(=O)c2c(OC)c1OC [Example 77, N,N-Dimethyl-2-[1-(5,6,7-tri-methoxy-4-oxo-1,4-di-hydro-quinazolin-2-yl)-pipe-ridin-4-yloxy-methyl]-benzene-sulfonamide] |
| 218.5 to 221 °C | CCOc1c(OC)c(OC)cc2[nH]c(N3CCc4cc(OC)c(OC)cc4C3)nc(=O)c12 (as salt: HCl) [Example 109, 2-(6,7-Dimethoxy-3,4-di-hydro-1H-isoquinolin-2-yl)-5-eth-oxy-6,7-di-methoxy-1H-quinazolin-4-one] |
